Reference: patent publication US7427612B2, “Benzoyl-piperazine derivatives” (Hoffmann-La Roche Inc., priority 2003, dated 2008)

Target: T1, mGlyT-1b (Mus musculus, UniProt P28571)
T1 construct: host or cells: Flp-in CHO cells, stably transfected
T1 sequence (P28571 1-651 isoform P28571-2): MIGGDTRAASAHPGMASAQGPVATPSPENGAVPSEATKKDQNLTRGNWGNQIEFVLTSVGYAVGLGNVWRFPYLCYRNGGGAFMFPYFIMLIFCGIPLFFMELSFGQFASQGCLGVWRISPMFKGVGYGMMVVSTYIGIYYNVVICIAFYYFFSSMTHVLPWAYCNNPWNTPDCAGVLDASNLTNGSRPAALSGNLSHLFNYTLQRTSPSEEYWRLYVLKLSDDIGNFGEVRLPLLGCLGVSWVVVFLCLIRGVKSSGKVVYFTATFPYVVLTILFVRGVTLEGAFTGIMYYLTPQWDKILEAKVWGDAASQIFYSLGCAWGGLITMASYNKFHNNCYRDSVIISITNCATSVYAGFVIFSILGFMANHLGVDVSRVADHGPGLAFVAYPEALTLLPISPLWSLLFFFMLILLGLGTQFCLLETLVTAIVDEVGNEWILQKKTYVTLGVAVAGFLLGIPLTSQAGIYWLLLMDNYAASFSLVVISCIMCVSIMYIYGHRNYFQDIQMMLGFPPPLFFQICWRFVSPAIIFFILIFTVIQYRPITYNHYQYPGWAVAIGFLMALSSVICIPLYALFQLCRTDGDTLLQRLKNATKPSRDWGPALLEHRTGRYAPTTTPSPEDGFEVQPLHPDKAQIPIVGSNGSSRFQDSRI
Experiment: Glycine uptake inhibition assay (mGlyT-1b)
Format: cell-based
Conditions: inhibition of [3H]-glycine uptake in Flp-in-CHO cells stably transfected with mGlyT1b cDNA; 20 min at 22° C.
Experimental: DMEM complete medium: Nutrient mixture F-12 (Gibco Life-technologies), fetal bovine serum (FBS) 5%, (Gibco life technologies), Penicillin/Streptomycin 1% (Gibco life technologies), Hygromycin 0.6 mg/ml (Gibco life technologies), Glutamine 1 mM Gibco life technologies)
Uptake buffer (UB): 150 mM NaCl, 10 mM Hepes-Tris, pH 7.4, 1 mM CaCl2, 2.5 mM KCl, 2.5 mM MgSO4, 10 mM (+) D-glucose. Flp-in™—CHO (Invitrogen Cat n° R758-07)cells stably transfected with mGlyT1b cDNA.
Glycine uptake inhibition assay (mGlyT-1b)
On Day 1 mammallian cells, (Flp-in™—CHO), transfected with mGlyT-1b cDNA, were plated at the density of 40,000 cells/well in complete F-12 medium, without hygromycin in 96-well culture plates. On day 2, the medium was aspirated and the cells were washed twice with uptake buffer (UB). The cells were then incubated for 20 min at 22° C. with either (i) no potential competitor, (ii) 10 mM non-radioactive glycine, (iii) a concentration of a potential inhibitor. A range of concentrations of the potential inhibitor was used to generate data for calculating the concentration of inhibitor resulting in 50% of the effect (e.g. IC50, the concentration of the competitor inhibiting glycine uptake of 50%). A solution was then immediately added containing [^3H]-glycine 60 nM (11-16 Ci/mmol) and 25 μM non-radioactive glycine. The plates were incubated with gentle shaking and the reaction was stopped by aspiration of the mixture and washing (three times) with ice-cold UB. The cells were lysed with scintillation liquid, shaken 3 hours and the radioactivity in the cells was counted using a scintillation counter.

**Q.** With `CC(=O)c1ccc(N2CCN(C(=O)c3cc([N+](=O)[O-])ccc3NCC3CC3)CC2)c(F)c1` [Example 4, 1-(4-{4-[2-(Cyclopropylmethyl-amino)-5-nitro-benzoyl]-piperazin-1-yl}-3-fluoro-phenyl)-ethanone] as the molecule, how does the IC50 read?
**A.** 13 nM

**Q.** `CC(=O)c1ccc(N2CCN(C(=O)c3cc(S(C)(=O)=O)ccc3N3CCCC3)CC2)c(F)c1` [Example 83, 1-{3-Fluoro-4-[4-(5-methanesulfonyl-2-pyrrolidin-1-yl-benzoyl)-piperazin-1-yl]-phenyl}-ethanone] was tested. Which IC50 did it give?
**A.** 19 nM

**Q.** Which IC50 does the source give for `CC(=O)c1ccc(N2CCN(C(=O)c3cc([N+](=O)[O-])ccc3N3CCCC(C)C3)CC2)c(F)c1` (centres unmarked) [Example 37, 1-(3-Fluoro-4-{4-[2-(3-methyl-piperidin-1-yl)-5-nitro-benzoyl]-piperazin-1-yl}-phenyl)-ethanone] here?
**A.** 7 nM

**Q.** How did the IC50 turn out when `CNS(=O)(=O)c1ccc(N2CCCC2)c(C(=O)N2CCN(c3ccc(C(C)=O)cc3F)CC2)c1` [Example 133, 3-[4-(4-Acetyl-2-fluoro-phenyl)-piperazine-1-carbonyl]-N-methyl-4-pyrrolidin-1-yl-benzenesulfonamide] was run?
**A.** 9 nM

**Q.** Which IC50 does the source give for `CC(=O)c1ccc(N2CCN(C(=O)c3cc([N+](=O)[O-])ccc3N3CCCC(O)C3)CC2)c(F)c1` (centres unmarked) [Example 45, 1-(3-Fluoro-4-{4-[2-(3-hydroxy-piperidin-1-yl)-5-nitro-benzoyl]-piperazin-1-yl}-phenyl)-ethanone] here?
**A.** 19 nM

**Q.** `CNS(=O)(=O)c1ccc(N2CCCCC2)c(C(=O)N2CCN(c3ccc(C(C)=O)cc3F)CC2)c1` [Example 245, 3-[4-(4-Acetyl-2-fluoro-phenyl)-piperazine-1-carbonyl]-N-methyl-4-piperidin-1-yl-benzene-sulfonamide] was tested. Which IC50 did it give?
**A.** 18 nM

**Q.** With `CNS(=O)(=O)c1ccc(N2CCOCC2)c(C(=O)N2CCN(c3ccc(C(F)(F)F)cc3F)CC2)c1` [Example 263, 3-[4-(2-Fluoro-4-trifluoro-methyl-phenyl)-piperazine-1-carbonyl]-N-methyl-4-morpholin-4-yl-benzene-sulfonamide] as the molecule, how does the IC50 read?
**A.** 10 nM

**Q.** For `CC(=O)c1ccc(N2CCN(C(=O)c3cc([N+](=O)[O-])ccc3N3CCCC3C)CC2)c(F)c1` (centres unmarked) [Example 38, 1-(3-Fluoro-4-{4-[2-(2-methyl-pyrrolidin-1-yl)-5-nitro-benzoyl]-piperazin-1-yl}-phenyl)-ethanone], which IC50 is on record?
**A.** 8 nM

**Q.** With `CC(=O)c1ccc(N2CCN(C(=O)c3cc(S(C)(=O)=O)ccc3N3CCCCCC3)CC2)c(F)c1` [Example 76, 1-{4-[4-(2-Azepan-1-yl-5-methanesulfonyl-benzoyl)-piperazin-1-yl]-3-fluoro-phenyl}-ethanone] as the molecule, how does the IC50 read?
**A.** 19 nM

**Q.** `CNS(=O)(=O)c1ccc(N2CCCC2)c(C(=O)N2CCN(c3ccc(C(F)(F)F)c(F)c3)CC2)c1` [Example 236, 3-[4-(3-Fluoro-4-trifluoromethyl-phenyl)-piperazine-1-carbonyl]-N-methyl-4-pyrrolidin-1-yl-benzenesulfonamide] was tested. Which IC50 did it give?
**A.** 4 nM

**Q.** Which IC50 does the source give for `CNS(=O)(=O)c1ccc(N2CCCCC2)c(C(=O)N2CCN(c3ccc(C#N)c(F)c3)CC2)c1` [Example 248, 3-[4-(4-Cyano-3-fluoro-phenyl)-piperazine-1-carbonyl]-N-methyl-4-piperidin-1-yl-benzenesulfonamide] here?
**A.** 10 nM

**Q.** Which IC50 does the source give for `CCN(CC)c1ccc([N+](=O)[O-])cc1C(=O)N1CCN(c2ccc(C(C)=O)cc2F)CC1` [Example 11, 1-{4-[4-(2-Diethylamino-5-nitro-benzoyl)-piperazin-1-yl]-3-fluoro-phenyl}-ethanone] here?
**A.** 15 nM

**Q.** For `N#Cc1cc(C(F)(F)F)ccc1N1CCN(C(=O)c2cc([N+](=O)[O-])ccc2N2CCOCC2)CC1` [Example 186, 2-[4-(2-Morpholin-4-yl-5-nitro-benzoyl)-piperazin-1-yl]-5-trifluoromethyl-benzonitrile], which IC50 is on record?
**A.** 15 nM

**Q.** For `CC(=O)c1ccc(N2CCN(C(=O)c3cc([N+](=O)[O-])ccc3N3CCCC3)CC2)c(F)c1` [Example 16, 1-{3-Fluoro-4-[4-(5-nitro-2-pyrrolidin-1-yl-benzoyl)-piperazin-1-yl]-phenyl}-ethanone], which IC50 is on record?
**A.** 12 nM

**Q.** How did the IC50 turn out when `C=CCN(C)c1ccc([N+](=O)[O-])cc1C(=O)N1CCN(c2ccc(C(C)=O)cc2F)CC1` [Example 43, 1-(4-{4-[2-(Allyl-methyl-amino)-5-nitro-benzoyl]-piperazin-1-yl}-3-fluoro-phenyl)-ethanone] was run?
**A.** 9 nM

**Q.** For `CNS(=O)(=O)c1ccc(N2CCCCC2)c(C(=O)N2CCN(c3ccc(C#N)cc3)CC2)c1` [Example 246, 3-[4-(4-Cyano-phenyl)-piperazine-1-carbonyl]-N-methyl-4-piperidin-1-yl-benzenesulfonamide], which IC50 is on record?
**A.** 11 nM

**Q.** `CC(=O)c1ccc(N2CCN(C(=O)c3cc([N+](=O)[O-])ccc3NCC(C)C)CC2)c(F)c1` [Example 19, 1-{3-Fluoro-4-[4-(2-isobutylamino-5-nitro-benzoyl)-piperazin-1-yl]-phenyl}-ethanone] was tested. Which IC50 did it give?
**A.** 3 nM

**Q.** For `CC(=O)c1ccc(N2CCN(C(=O)c3cc([N+](=O)[O-])ccc3NC(C)(C)C)CC2)c(F)c1` [Example 176, 1-{3-Fluoro-4-[4-(2-tert.-butylamino-5-nitro-benzoyl)-piperazin-1-yl]-phenyl}-ethanone], which IC50 is on record?
**A.** 20 nM

**Q.** `CNS(=O)(=O)c1ccc(N2CCCCC2)c(C(=O)N2CCN(c3ccc(C#N)cc3F)CC2)c1` [Example 247, 3-[4-(4-Cyano-2-fluoro-phenyl)-piperazine-1-carbonyl]-N-methyl-4-piperidin-1-yl-benzene-sulfonamide] was tested. Which IC50 did it give?
**A.** 14 nM

**Q.** Which IC50 does the source give for `CC(=O)c1ccc(N2CCN(C(=O)c3cc([N+](=O)[O-])ccc3NC3CCC3)CC2)c(F)c1` [Example 20, 1-{4-[4-(2-Cyclobutylamino-5-nitro-benzoyl)-piperazin-1-yl]-3-fluoro-phenyl}-ethanone] here?
**A.** 2.1 nM

**Q.** For `CS(=O)(=O)c1ccc(N2CCCCC2)c(C(=O)N2CCN(c3ccc(C#N)c(F)c3)CC2)c1` [Example 217, 2-Fluoro-4-[4-(5-methanesulfonyl-2-piperidin-1-yl-benzoyl)-piperazin-1-yl]-benzonitrile], which IC50 is on record?
**A.** 16 nM

**Q.** With `CC(=O)c1ccc(N2CCN(C(=O)c3cc([N+](=O)[O-])ccc3N3CCCCC3)CC2)c(F)c1` [Example 27, 1-{3-Fluoro-4-[4-(5-nitro-2-piperidin-1-yl-benzoyl)-piperazin-1-yl]-phenyl}-ethanone] as the molecule, how does the IC50 read?
**A.** 1.2 nM

**Q.** Which IC50 does the source give for `CNS(=O)(=O)c1ccc(N2CCCC2)c(C(=O)N2CCN(c3ccc(C#N)cc3F)CC2)c1` [Example 234, 3-[4-(4-Cyano-2-fluoro-phenyl)-piperazine-1-carbonyl]-N-methyl-4-pyrrolidin-1-yl-benzenesulfonamide] here?
**A.** 10 nM

**Q.** For `CC(=O)c1ccc(N2CCN(C(=O)c3cc([N+](=O)[O-])ccc3N3CCCCC3C)CC2)c(F)c1` (centres unmarked) [Example 35, 1-(3-Fluoro-4-{4-[2-(2-methyl-piperidin-1-yl)-5-nitro-benzoyl]-piperazin-1-yl}-phenyl)-ethanone], which IC50 is on record?
**A.** 6 nM

**Q.** With `CC(=O)c1ccc(N2CCN(C(=O)c3cc([N+](=O)[O-])ccc3N3CCC(CO)C3)CC2)c(F)c1` (racemic) [Example 175, 1-(3-Fluoro-4-{4-[2-(3-hydroxymethyl-pyrrolidin-1-yl)-5-nitro-benzoyl]-piperazin-1-yl}-phenyl)-ethanone] as the molecule, how does the IC50 read?
**A.** 9.7 nM

**Q.** How did the IC50 turn out when `CNS(=O)(=O)c1ccc(N2CCCCC2)c(C(=O)N2CCN(c3ccc(C(F)(F)F)c(F)c3)CC2)c1` [Example 251, 3-[4-(3-Fluoro-4-trifluoro-methyl-phenyl)-piperazine-1-carbonyl]-N-methyl-4-piperidin-1-yl-benzenesulfonamide] was run?
**A.** 19 nM
